Test results reported in paper PMC5869189 (Frontiers in Immunology, 2018).

System: PBMC from healthy, seropositive donors
Format: cell-based, human

Sequence | % Responders | Median SFC/10^6 PBMCs (IFN-g)
GRQVYEATLCAIFSEAKDRF [BPSS1525_P12] | 84.6% | 201
GVAAAGYANTRDGFAPGHLS [BPSS1599_P6] | 85.4% | 129
GVALVAAAFVGASAVKAVAS [BPSS1532_P45] | 83.9% | 142
HAEQALELRGINKPVLSNDE [BPSS1531_P26] | 85.7% | 219
HFQQLERHLAHQASLRLGQT [BPSS0530_P3] | 83.7% | 253
HQASLRLGQTSNHGWGFTLL [BPSS0530_P4] | 83.7% | 239
IFAFSAAMPAEKLRQLLPQQ [BPSS0530_P36] | 95.3% | 298
IGSDKYNDRLSLRRAQAVKS [BPSL2522_P15] | 97.1% | 290
IQHVSVNNLNVGRSPEEILR [BPSL2096_P15] | 82.4% | 314
IRLRADTLMGAELAARPEYR [BPSS1525_P19] | 82.1% | 197
ITNYFTGLQTVANNAADPSA [BPSL0280_P12] | 82.8% | 557
IVEFAKLAKQFEERDAVLLG [BPSL2096_P7] | 85.3% | 304
KGELIDQLGVRDKEAGVALR [BPSL2096_P12] | 97.1% | 317
KLNHYSFGDVKGELIDQLGV [BPSL2096_P11] | 88.2% | 320
KLTMLAHDAMMSAAAQDRSI [BPSS1531_P19] | 88.6% | 226
KLVDLQLPGARLNALPNPPR [BPSS0530_P39] | 86.0% | 221
KQTLAGSAMALRIVGDFPDL [BPSS0530_P43] | 100.0% | 299
KVYTEGKGKRNPVTGNTCKQ [BPSL2522_P18] | 94.3% | 288
LAGVQVVQSNGNYSVFLSGG [BPSL0280_P22] | 93.1% | 464
LASRYRAVSTEVPDLAVGLD [BPSS0530_P13] | 97.7% | 267
LEGAFYNGRRQPAPNWLGAF [BPSS1599_P9] | 85.4% | 126

Sequence | % Responders | Median SFC/10^6 PBMCs (IFN-g)
LERLHTDYAWGGWNVVIGEP [BPSS1599_P14] | 95.8% | 157
LFDFDKAVLKPAGKQKLDEL [BPSL2522_P11] | 85.7% | 408
LGAMVSRAIALEGAFYNGRR [BPSS1599_P8] | 89.6% | 99
LLLRQAIAEYRMRLANLDAF [BPSS0530_P25] | 81.4% | 244
LLVVEPGATLDTDGERATLD [BPSS1599_P31] | 83.3% | 151
LQTSFEPLAMMLRQALARVI [BPSS0530_P31] | 97.7% | 240
LRIVGDFPDLRFEAWGLRDGKVA [BPSS0530_P44] | 90.7% | 225
LRVERIAYQNNQWTLEGVLY [BPSS1599_P42] | 91.7% | 139
LSPRAALIAATAACVVLGGA [BPSS1599_P20] | 97.9% | 150
MLRQALARVIETPVLPLRFE [BPSS0530_P32] | 95.3% | 316
MSAAAQDRSIGAAQMTAAIA [BPSS1531_P20] | 91.4% | 225
MSAQVIQIGRQRFVGGLFWQ [BPSS1599_P1] | 81.3% | 189
MSSLPVGPVAWSDGMLIETQ [BPSS0530_P1] | 93.0% | 258
NANLGGIAPPEFVRAIDVPG [BPSS1599_P40] | 89.6% | 137
NASRTVSLDPRFIPPLLDTR [BPSS0530_P19] | 97.7% | 334
NLAQQAAALPASPTWRAYRL [BPSS1599_P38] | 89.6% | 125
NNHEENGQSAFETVTEASFP [BPSL2096_P3] | 91.2% | 308
NQWTLEGVLYAK [BPSS1599_P43] | 81.3% | 120
NRRVEIYLRAPQAAQ [BPSL0999_P21] | 93.6% | 348
NSYTSQIAQLNEQIASASSQ [BPSL0280_P18] | 93.1% | 523
NVPSSVTFATDQYAITPAFT [BPSL0999_P11] | 95.7% | 399

Sequence | % Responders | Median SFC/10^6 PBMCs (IFN-g)
PATANAKCDGALVAQAPAPA [BPSL2522_P7] | 82.9% | 265
PEQGPRAPLANLAQQAAALP [BPSS1599_P37] | 93.8% | 147
PLLNDLATTLNQNPQITASV [BPSL0999_P13] | 91.5% | 357
PVAPVAPAITSQKITYQADT [BPSL2522_P9] | 88.6% | 353
QGMGASNPIADNATEAGRAQ [BPSL0999_P19] | 97.9% | 375
QIPYYAQSTYFEVESTDPFW [BPSS0530_P41] | 81.4% | 292
QPAPNWLGAFALPDGRWAYF [BPSS1599_P10] | 95.8% | 189
QPKRLDDLLPRRGGRPRTER [BPSS1599_P17] | 83.3% | 141
QRFVGGLFWQSLSRRNELRA [BPSS1599_P2] | 81.3% | 137
RDGFAPGHLSLGAMVSRAIA [BPSS1599_P7] | 95.8% | 132
RDKEAGVALRATFIVDPDNT [BPSL2096_P13] | 94.1% | 315
RDLAVSKLSQLAGVQVVQSN [BPSL0280_P21] | 93.1% | 493
REPKKQDICYATQNRQDAVK [BPSL0919_P21] | 94.6% | 422
RFIPPLLDTRAHLVLRSLID [BPSS0530_P20] | 90.7% | 248
RLGLRHARGVFQDGTAFSLP [BPSS0530_P7] | 90.7% | 211
RLNALPNPPRQIPYYAQSTY [BPSS0530_P40] | 81.4% | 219
RMRLANLDAFDPLPPAMLYH [BPSS0530_P26] | 88.4% | 240
RQTAMSNAQTLASQLVAAGQ [BPSL0280_P14] | 89.7% | 565
RRGGRPRTERWWALRPVERR [BPSS1599_P18] | 97.9% | 172
